In patent US10125095B2, “Abscisic acid derivative” (NATIONAL UNIVERSITY CORPORATION SHIZUOKA UNIVERSITY, priority 2014, dated 2018):

What was measured:
HAB1 = target: T1, HAB1 (Arabidopsis thaliana, UniProt Q9CAJ0); assay: Protein dephosphorylation enzyme activity test, no receptor; assay type: biochemical, thale cress; settings: control = 100%
T1 construct: GST (N); made in house; host or cells: Escherichia coli BL21(DE3)pLysS
T1 sequence (Q9CAJ0 23-511): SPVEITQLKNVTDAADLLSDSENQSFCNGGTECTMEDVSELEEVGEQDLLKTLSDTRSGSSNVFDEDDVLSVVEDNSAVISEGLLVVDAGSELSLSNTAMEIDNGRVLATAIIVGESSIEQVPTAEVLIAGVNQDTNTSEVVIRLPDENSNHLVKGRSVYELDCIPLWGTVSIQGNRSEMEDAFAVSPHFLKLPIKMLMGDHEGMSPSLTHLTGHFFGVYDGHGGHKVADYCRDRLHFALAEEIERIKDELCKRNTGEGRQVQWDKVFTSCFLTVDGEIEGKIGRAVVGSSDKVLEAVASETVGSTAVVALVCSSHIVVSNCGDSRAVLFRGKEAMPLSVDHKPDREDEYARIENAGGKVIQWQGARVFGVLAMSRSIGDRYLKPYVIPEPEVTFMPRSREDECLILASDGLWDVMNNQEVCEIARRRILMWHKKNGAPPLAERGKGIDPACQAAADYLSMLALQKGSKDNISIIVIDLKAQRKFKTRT
Method: (§1) A plasmid (pGex-2T-GST-HAB1 or pET28-6×His-PYL) encoded with PYR/PYL/RCAR proteins (PYL, abscisic acid receptor) or protein dephosphorylation enzyme HAB1 of thale cress was transformed to Escherichia coli (HAB1:BL21(DE3)pLysS, PYL:BL21-codonplus(DE3)-RIPL). Isopropyl-β-thiogalactopyranoside was added to the culture broth, which had been subjected to pre-culture (30° C., 180 rpm, 15 hours) and main culture (30° C., 180 rpm, 4 hours), and the protein-expressed (16° C., 150 rpm, 18 hours) crude enzyme solution was purified using FPLC thereby preparing the recombined PYL (PYR1, PYL1-6, PYL8-10) and HAB1. β-Mercaptoethanol, a manganese chloride aqueous solution, HAB1, PYL, a solution of the sample in dimethylsulfoxide and ultrapure water were sequentially added to a 96-well plate, allowed to stand at 22° C. for 30 minutes. Subsequently p-nitrophenylphosphate, which is the artificial substrate of HAB1, was added thereto to start the reaction, and the plate was placed in a microplate reader (TECAN, Infinite™ N200 NanoQuant). The absorbance at 405 nm due to p-nitrophenol, which is the hydrolysate of p-nitrophenylphosphate, was measured 3 minutes later from the reaction initiation, and HAB1 activity was calculated by the following formula (2). Note that the fraction to which only dimethylsulfoxide was added was considered to be the control and the activity thereof was defined as 100%. […] HAB1 specific activity (%)=Absorbance when sample was added/Absorbance of control×100 (2)

PYL9 = target: T2, PYL9 (Arabidopsis thaliana, UniProt Q84MC7); assay: Protein dephosphorylation enzyme activity test, PYL9; assay type: biochemical, thale cress; settings: control = 100%
T2 construct: 6xHis (N); made in house; host or cells: Escherichia coli BL21-codonplus(DE3)-RIPL (PYL); BL21(DE3)pLysS (HAB1)
T2 sequence (Q84MC7 1-187): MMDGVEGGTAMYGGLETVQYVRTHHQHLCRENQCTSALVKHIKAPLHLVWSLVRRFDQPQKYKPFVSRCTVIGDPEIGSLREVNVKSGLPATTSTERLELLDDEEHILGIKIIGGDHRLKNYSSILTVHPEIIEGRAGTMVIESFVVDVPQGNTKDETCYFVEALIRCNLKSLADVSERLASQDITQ
Method: as §1

[1] = system: thale cress (Arabidopsis thaliana, Col-0) seedlings; assay: Thale cress growth test; assay type: in vivo; settings: sprayed once a day, three weeks' culture
Method: Seeds of thale cress (Arabidopsis thaliana, Col-0) were sequentially immersed for 1 minute respectively in 500 μL of an aqueous solution of 5% bleach+1% SDS, 500 μL of a 70% aqueous solution of ethanol and 500 μL of a 70% aqueous solution of ethanol, washed five times in 1 mL of sterilized water, and then suspended in a 0.1% aqueous solution of agar. 25 mL each of germination medium (containing ½ MS medium inorganic salts) sterilized in an autoclave was added to a sterilized plastic petri dish, in which 60 to 80 seeds suspended in the 0.1% aqueous solution of agar were planted and, in a dark place, the seeds were vernilized at 4° C. for 3 days. The seeds were cultured at 22° C. under continuous light for 10 days. 40 g […] of sterilized soil (organic culture soil:vermiculite=1:1) was added to a plastic pot (50 mm×50 mm×50 mm, 35 mm bottom surface×35 mm height). Six plastic pots thus provided were placed in a 3000 mL-tray, 300 mL (depth 10 mm) of an aqueous solution of 1000-fold diluted HYPONeX (tradename (registered trademark), product of HYPONeX JAPAN CORP., LTD.) was added thereto and five roots each of thale cress seedlings were transplanted from the plastic petri dish. The seedlings were cultured at 22° C. under conditions of 16 hour light period-8 hour dark period, and 1 mL of an aqueous solution (prepared so as the final concentration of the compound of Example 7 to be 50 μM) of 0.1% DMSO (containing the compound of Example 7)+0.1% Approach BI (tradename (registered trademark), product of Kao Corporation) was sprayed once a day. Further, 300 mL of an aqueous solution of 2000-fold diluted HYPONeX was added every week. The same treatment as above was carried out using the compound of Comparative Example 1. Note that the seedlings, to which 1 mL of an aqueous solution of 0.1% DMSO+0.1% Approach BI without containing the above compound was sprayed once a day, were used as controls. […]

[2] = system: lettuce (Lactuca saliva) seeds; assay: Lettuce seed germination test; assay type: in vivo; settings: co-applied with ABA
[3] = system: bok choy (Brassica rapa var. chinensis) seeds; assay: Bok choy seed germination test; assay type: in vivo; settings: co-applied with ABA

HAB1 Specific activity (%) None (HAB1; ABA + compound) [%]	HAB1 Specific activity (%) PYL9 (PYL9; ABA + compound) [%]	Structure (SMILES)	HAB1 Specific activity (%) None (HAB1; sample alone) [%]	HAB1 Specific activity (%) PYL9 (PYL9; sample alone) [%]	Growth of thale cress ([1]; only ABA, 5 μM)	Growth suppression effect of ABA on thale cress ([1]; 50 μM compound co-applied with 5 μM ABA)	Recovery of seed germination rate decreased by ABA [2]	Recovery of seed germination rate decreased by ABA [3]
–	–	CC1=CC(=O)CC(C)(C)[C@@]1(O)/C=C/C(C)=C\C(=O)O [ABA, abscisic acid]	97	31	the growth of thale cress was notably suppressed	–	–	–
–	–	CC1=C[C@@H](OCC#Cc2ccc(C)cc2)CC(C)(C)[C@@]1(O)/C=C/C(C)=C\C(=O)O [Example 7]	–	–	–	the growth suppression effect by ABA was notably improved and the thale cress growth was recovered to the same extent as the controls	–	–
81	90	CC1=C[C@@H](OCC#Cc2ccccc2)CC(C)(C)[C@@]1(O)/C=C/C(C)=C\C(=O)O [Example 1, (2Z,4E)-5-((1S,4S)-1-hydroxy-2,6,6-trimethyl-4-((3-phenylprop-2-yn-1-yl)oxy)cyclohex-2-en-1-yl)-3-methylpenta-2,4-dienoic acid]	83.8	111	–	–	recovered the seed germination rates once decreased by ABA	recovered the seed germination rates once decreased by ABA
